# Assay results reported in US20080293087A1, “SULFONYLUREA RECEPTOR SHORT FORMS FROM MITOCHONDRIA AND USES THEREOF” (priority 2006, published 2008).
# Key:
# KIR6.2/NMT 55-SUR2B = assay: Inside-out patch-clamp potassium current, ATP sensitivity; type: cell-based, mouse; details: 100 μM ATP, COS1 cells containing KIR6.2/NMT 55-SUR2B, 0 mV, room temperature (FIG. 4C)
# Experimental: (§1) Cellular Electrophysiology: Electrophysiology experiments were carried out as previously described by Chutkow el al., with modifications. Chutkow W, et al., “Alternative splicing of sur2 Exon 17 regulates nucleotide sensitivity of the ATP-sensitive potassium channel,” J. Biol. Chem. 274:13656-13665 (1999). Briefly, KIR^6.2 was sub-cloned to 5′ of a bicistronic vector (pIRGFP, as pNQ56.) to express the desired NMT-SUR2 short forms and GFP under control of a cytomegalovirus promoter. The KIR6.2 construct was transiently expressed in COS1 cell lines that stably expressed NMT 55-SUR2A or NMT 55-SUR2B. Cells expressing GFP were used for cellular electrophysiological analysis.
# (§2) Potassium currents were measured at room temperature (˜22-25° C.) by an inside-out patch-clamp technique. The bath solution (cytoplasmic side) comprised the following: 140 mM KCl, 2 mM cthylene glycol-bis(β-aminioethyl ether)-N,N,N′,N′-tetraacetic acid (EGTA), 5.5 mM glucose and 5 mM N-2-hydroxyethylpiperazine-N′-2-ethanesulfonic acid (HEPES) with pH 7.3. The pH was adjusted to the designated values using KOH or HCl. 100 μM K2ATP (Sigma) was used to test the ATP sensitivity, and the ATP-containing solutions were freshly prepared. […] Signals were recorded continuously at 0 mV using a patch-clamp amplifier (Axopatch 200; Molecular Devices; Toronto, Canada) and Clampex 10.0 software (Molecular Devices).
# KIR6.2/NMT 55-SUR2A = assay: as above; type: cell-based, mouse; details: 100 μM ATP, COS1 cells containing KIR6.2/NMT 55-SUR2A, 0 mV, room temperature (FIG. 3C)
# Experimental: as §1, §2
# KIR6.2 (mouse) = KIR6.2 (mouse) (UniProt Q61743); assay: cell-based or functional assay
# UniProt Q61743, sequence (Q61743 whole entry): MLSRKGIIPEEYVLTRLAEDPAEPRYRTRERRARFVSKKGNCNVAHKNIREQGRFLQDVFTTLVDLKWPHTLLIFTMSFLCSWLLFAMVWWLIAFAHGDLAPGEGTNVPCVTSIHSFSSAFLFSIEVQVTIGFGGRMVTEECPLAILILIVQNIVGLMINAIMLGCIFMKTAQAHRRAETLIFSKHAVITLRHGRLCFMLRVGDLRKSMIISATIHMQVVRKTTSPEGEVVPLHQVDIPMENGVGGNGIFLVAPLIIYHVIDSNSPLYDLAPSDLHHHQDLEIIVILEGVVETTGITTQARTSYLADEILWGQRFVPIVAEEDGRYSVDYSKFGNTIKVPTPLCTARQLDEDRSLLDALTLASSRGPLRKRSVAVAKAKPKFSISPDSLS
growth of E. coli K+ uptake mutant 6106 in M9 minimal medium pH 5.5 (KIR6.2 (mouse)),Compound,IKATP-like current (KIR6.2/NMT 55-SUR2B),IKATP-like current (KIR6.2/NMT 55-SUR2A)
,Nc1ncnc2c1ncn2[C@@H]1O[C@H](COP(=O)([O-])OP(=O)(O)OP(=O)([O-])O)[C@@H](O)[C@H]1O.[K+].[K+] [ATP],inhibited,inhibited
12%,SUR2B short form (~55 kDa) (from UniProt P70170 1-1504),,
